Measured values taken from patent publication US11691984B2, “Compounds and methods for DCAF-mediated protein degradation” (The Scripps Research Institute, priority 2018, dated 2023).

Molecular target: T1, ACAT1 (Homo sapiens, UniProt P24752)
T1 construct: endogenous in cells; host or cells: HEK293T
T1 sequence (P24752 34-427): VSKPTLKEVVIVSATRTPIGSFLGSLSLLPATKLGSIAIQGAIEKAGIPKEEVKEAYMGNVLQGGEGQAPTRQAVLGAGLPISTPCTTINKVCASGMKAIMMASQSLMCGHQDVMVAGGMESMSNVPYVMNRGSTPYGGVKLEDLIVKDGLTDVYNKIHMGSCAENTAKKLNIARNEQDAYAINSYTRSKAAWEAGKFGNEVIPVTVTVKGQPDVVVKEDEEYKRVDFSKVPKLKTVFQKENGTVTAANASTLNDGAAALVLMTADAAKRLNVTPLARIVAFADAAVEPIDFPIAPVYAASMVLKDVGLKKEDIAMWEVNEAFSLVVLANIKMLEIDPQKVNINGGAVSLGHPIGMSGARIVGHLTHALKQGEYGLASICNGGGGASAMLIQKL
Assay: Competitive ABPP (TMT) of cysteine engagement in ACAT1
Type: cell-based
Details: HEK293T, 1.5 h
Description: HEK293T cells were treated with DMSO (four biological replicates), 2 μM KB02-SLF (three biological replicates) or 20 μM KB02-JQ1 (three biological replicates) for 1.5 h (ten samples in total). Cells were collected, washed once with PBS and lysed in PBS by sonication (40%, 4, 20 pulses). Samples were clarified by centrifugation for 10 min at 8,000 g. Lysate was adjusted to 1.0 mg/mL in 500 μL. Samples were labeled with 100 μM iodoacetamide alkyne (5 μL of 10 mM stock in DMSO) at room temperature for 1 hour, conjugated by CuACC to desthiobiotin azide (10 μL of 5 mM stock in DMSO, final concentration=100 tris(2-carboxyethyl)phosphine hydrochloride (TCEP, 10 μL of 50 mM stock in H2O, final concentration=1 mM), TBTA (30 μL of 1.7 mM stock in 4:1 tBuOH:DMSO, final concentration=100 μM) and CuSO4 (10 μL of 50 mM stock in H2O, final concentration=1 mM). The samples were allowed to react for 1 hour at room temperature. Proteins were precipitated by adding 3.5 mL of H2O, 4 mL of methanol and 1.5 mL of chloroform, followed by centrifugation at 5,000 g for 15 min (4° C.). After aspirating the top layer, the protein pellets with bottom layer were washed with 8 mL cold methanol by centrifugation at 5,000 g for 15 min (4° C.). […]
The samples were analyzed in Orbitrap Fusion Tribrid mass spectrometer (Thermo Scientific) coupled to UltiMate 3000 HPLC system (Thermo Scientific). […]

Row | Compound | engagement of ACAT1 C126 (KB02-SLF 2 μM) | engagement of ACAT1 C126 (KB02-JQ1 20 μM)
1 | CCC(C)(C)C(=O)C(=O)N1CCCC[C@H]1C(=O)O[C@H](CCc1ccc(OC)c(OC)c1)c1cccc(NC(=O)CCOCCOCCNC(=O)COc2ccc3c(c2)CCCN3C(=O)CCl)c1 [KB02-SLF, (R)-1-(3-(3-(2-(2-(2-((1-(2-chloroacetyl)-1,2,3,4-tetrahydroquinolin-6-yl)oxy)acetamido)ethoxy)ethoxy)propanamido)phenyl)-3-(3,4-dimethoxyphenyl)propyl (S)-1-(3,3-dimethyl-2-oxopentanoyl)piperidine-2-carboxylate] | fully engaged | –
2 | Cc1sc2c(c1C)C(c1ccc(Cl)cc1)=N[C@@H](CC(=O)NCCOCCOCCNC(=O)COc1ccc3c(c1)CCCN3C(=O)CCl)c1nnc(C)n1-2 [KB02-JQ1, (S)-2-((1-(2-chloroacetyl)-1,2,3,4-tetrahydroquinolin-6-yl)oxy)-N-(2-(2-(2-(2-(4-(4-chlorophenyl)-2,3,9-trimethyl-6H-thieno[3,2-f][1,2,4]triazolo[4,3-a][1,4]diazepin-6-yl)acetamido)ethoxy)ethoxy)ethyl)acetamide] | – | fully engaged
